Laboratory results from ChEMBL document CHEMBL4376820, “Homodimeric Tobramycin Adjuvant Repurposes Novobiocin as an Effective Antibacterial Agent against Gram-Negative Bacteria” (J Med Chem, 2019).
The source made the active and inactive calls. No cut-off for these calls is given here.

Key:
[1] = system: Pseudomonas aeruginosa; experiment: Synergistic antibacterial activity against wild type Pseudomonas aeruginosa PAO1 assessed as potentiation of meropenem-induced antibacterial effect incubated for 18 hrs by checkerboard assay relative to meropenem alone; format: functional
[2] = system: Acinetobacter baumannii; experiment: Antibacterial activity against novobiocin-resistant Acinetobacter baumannii ATCC 17978 mutant generated from seven serial passages by checkerboard assay; format: functional
[3] = system: Klebsiella pneumoniae; experiment: Potentiation of novobiocin-induced antibacterial activity against colistin-resistant Klebsiella pneumoniae 113254 clinical isolate assessed as novobiocin MIC at <= 7.1 uM incubated for 18 hrs by CLSI protocol based assay (reference value: 256 ug/ml); format: functional; details: Klebsiella pneumoniae, 113254, 18 h
[4] = system: Pseudomonas aeruginosa; experiment: Bactericidal activity against Pseudomonas aeruginosa PAO1 assessed as log reduction in colony forming units per ml at 7.1 uM in LB media after 24 hrs in by time-kill assay; format: functional
[5] = system: Acinetobacter baumannii; experiment: Antibacterial activity against wild type Acinetobacter baumannii ATCC 17978 assessed as resistant development at 7.1 uM measured after 3 days of passaging in presence of novobiocin by microbroth dilution method relative to control; format: functional
[6] = system: Escherichia coli; experiment: Potentiation of novobiocin-induced antibacterial activity against wild type Escherichia coli ATCC 25922 assessed as novobiocin MIC at <= 7.1 uM incubated for 18 hrs by CLSI protocol based assay (reference value: 64 ug/ml); format: functional; details: ATCC 25922, 18 h
[7] = system: Pseudomonas aeruginosa; experiment: Synergistic antibacterial activity against wild type Pseudomonas aeruginosa PAO1 assessed as potentiation of cefotaxime-induced antibacterial effect incubated for 18 hrs by checkerboard assay relative to cefotaxime alone; format: functional
[8] = system: Escherichia coli; experiment: Potentiation of novobiocin-induced antibacterial activity against colistin-resistant Escherichia coli 94474 clinical isolate harboring mcr-1 gene assessed as novobiocin MIC at <= 7.1 uM incubated for 18 hrs by CLSI protocol based assay (reference value: 256 ug/ml); format: functional; details: Escherichia coli, 94474, 18 h
[9] = system: Pseudomonas aeruginosa; experiment: Antibacterial activity against carbapenem-resistant Pseudomonas aeruginosa 264-104354 clinical isolate incubated for 18 hrs by CLSI protocol based assay; format: functional; details: 264-104354, 18 h
[10] = system: Enterobacter cloacae; experiment: Potentiation of novobiocin-induced antibacterial activity against colistin-resistant Enterobacter cloacae 118568 clinical solate assessed as novobiocin MIC at <= 7.1 uM incubated for 18 hrs by CLSI protocol based assay (reference value: 1024 ug/ml); format: functional; details: Enterobacter cloacae, 118568, 18 h
[11] = system: Pseudomonas aeruginosa; experiment: Antibacterial activity against Pseudomonas aeruginosa 260-97103 clinical isolate incubated for 18 hrs by CLSI protocol based assay; format: functional; details: 260-97103, 18 h
[12] = system: Acinetobacter baumannii; experiment: Bactericidal activity against Acinetobacter baumannii ATCC 17978 assessed as log reduction in colony forming units per ml at 7.1 uM in LB media after 9 hrs in presence of 50.4 uM novobiocin by time-kill assay; format: functional
[13] = system: Pseudomonas aeruginosa; experiment: Potentiation of novobiocin-induced antibacterial activity against carbapenem and colistin-resistant Pseudomonas aeruginosa 91433 clinical isolate assessed as fold reduction in novobiocin MIC incubated for 18 hrs by CLSI protocol based assay relative to novobiocin MIC; format: functional
[14] = Toxicity in Galleria mellonella larvae assessed as survivability at 200 mg/kg measured every 6 hrs for 72 hrs; format: organism-based; details: in vivo
[15] = system: Pseudomonas aeruginosa; experiment: Synergistic antibacterial activity against wild type Pseudomonas aeruginosa PAO1 assessed as potentiation of novobiocin-induced antibacterial effect incubated for 18 hrs by checkerboard assay relative to novobiocin alone; format: functional
[16] = system: Pseudomonas aeruginosa; experiment: Potentiation of novobiocin-induced antibacterial activity against carbapenem and colistin-resistant Pseudomonas aeruginosa 91433 clinical isolate assessed as novobiocin MIC at <= 7.1 uM incubated for 18 hrs by CLSI protocol based assay (reference value: 16 ug/ml); format: functional; details: Pseudomonas aeruginosa, 91433, 18 h
[17] = system: Klebsiella pneumoniae; experiment: Potentiation of novobiocin-induced antibacterial activity against Klebsiella pneumoniae 116381 clinical isolate assessed as fold reduction in novobiocin MIC incubated for 18 hrs by CLSI protocol based assay relative to novobiocin MIC; format: functional
[18] = system: Pseudomonas aeruginosa; experiment: Synergistic antibacterial activity against wild type Pseudomonas aeruginosa PAO1 assessed as potentiation of doxycycline-induced antibacterial effect incubated for 18 hrs by checkerboard assay relative to doxycycline alone; format: functional
[19] = system: Pseudomonas aeruginosa; experiment: Potentiation of novobiocin-induced antibacterial activity against mexAB-oprM/mexCD-oprJ/mexEF-oprN/mexJK/mexXY/opmH mutant deficient Pseudomonas aeruginosa PAO750 assessed as novobiocin MIC at <= 7.1 uM incubated for 18 hrs by CLSI protocol based assay (reference value: 32 ug/ml); format: functional; details: PAO750, 18 h
[20] = system: Pseudomonas aeruginosa; experiment: Synergistic antibacterial activity against wild type Pseudomonas aeruginosa PAO1 assessed as potentiation of minocycline-induced antibacterial effect incubated for 18 hrs by checkerboard assay relative to minocycline alone; format: functional
[21] = system: Pseudomonas aeruginosa; experiment: Synergistic antibacterial activity against wild type Pseudomonas aeruginosa PAO1 assessed as potentiation of chloramphenicol-induced antibacterial effect incubated for 18 hrs by checkerboard assay; format: functional, organism-based
[22] = system: Pseudomonas aeruginosa; experiment: Synergistic antibacterial activity against wild type Pseudomonas aeruginosa PAO1 assessed as potentiation of ceftazidime-induced antibacterial effect incubated for 18 hrs by checkerboard assay relative to ceftazidime alone; format: functional
[23] = system: Pseudomonas aeruginosa; experiment: Antibacterial activity against wild type Pseudomonas aeruginosa PAO1 assessed as fractional inhibitory concentration index incubated for 18 hrs in presence of tobramycin by checkerboard assay; format: functional
[24] = system: Acinetobacter baumannii; experiment: Potentiation of novobiocin-induced antibacterial activity against Acinetobacter baumannii 031 clinical isolate assessed as fold reduction in novobiocin MIC incubated for 18 hrs by CLSI protocol based assay relative to novobiocin MIC; format: functional
[25] = system: Pseudomonas aeruginosa; experiment: Antibacterial activity against wild type Pseudomonas aeruginosa PAO1 assessed as fractional inhibitory concentration index incubated for 18 hrs in presence of colistin by checkerboard assay; format: functional
[26] = system: Klebsiella pneumoniae; experiment: Potentiation of novobiocin-induced antibacterial activity against Klebsiella pneumoniae 116381 clinical isolate assessed as novobiocin MIC at <= 7.1 uM incubated for 18 hrs by CLSI protocol based assay (reference value: 1024 ug/ml); format: functional; details: Klebsiella pneumoniae, 116381, 18 h
[27] = system: Enterobacter cloacae; experiment: Potentiation of novobiocin-induced antibacterial activity against colistin-resistant Enterobacter cloacae 121187 clinical solate assessed as novobiocin MIC at <= 7.1 uM incubated for 18 hrs by CLSI protocol based assay (reference value: 64 ug/ml); format: functional; details: Enterobacter cloacae, 121187, 18 h
[28] = system: Escherichia coli; experiment: Potentiation of novobiocin-induced antibacterial activity against wild type Escherichia coli ATCC 25922 assessed as fold reduction in novobiocin MIC incubated for 18 hrs by CLSI protocol based assay relative to novobiocin MIC; format: functional
[29] = system: Pseudomonas aeruginosa; experiment: Synergistic antibacterial activity against wild type Pseudomonas aeruginosa PAO1 assessed as potentiation of vancomycin-induced antibacterial effect at <=7.1 uM incubated for 18 hrs by checkerboard assay; format: functional, organism-based
[30] = system: Acinetobacter baumannii; experiment: Antibacterial activity against Acinetobacter baumannii LAC-4 clinical isolate incubated for 18 hrs by CLSI protocol based assay; format: functional; details: LAC-4, 18 h
[31] = system: Pseudomonas aeruginosa; experiment: Synergistic antibacterial activity against wild type Pseudomonas aeruginosa PAO1 assessed as potentiation of moxifloxacin-induced antibacterial effect incubated for 18 hrs by checkerboard assay; format: functional, organism-based
[32] = system: Pseudomonas aeruginosa; experiment: Synergistic antibacterial activity against wild type Pseudomonas aeruginosa PAO1 assessed as potentiation of chloramphenicol-induced antibacterial effect incubated for 18 hrs by checkerboard assay relative to chloramphenicol alone; format: functional
[33] = system: Escherichia coli; experiment: Bactericidal activity against Escherichia coli ATCC […] assessed as log reduction in colony forming units per ml at 7.1 uM in LB media after 9 hrs by time-kill assay; format: functional

NC[C@H]1O[C@H](O[C@H]2[C@H](OCCCCc3cn(CCCCO[C@@H]4[C@@H](O[C@H]5O[C@H](CO)[C@@H](O)[C@H](N)[C@H]5O)[C@H](N)C[C@H](N)[C@H]4O[C@H]4O[C@H](CN)[C@@H](O)C[C@H]4N)nn3)[C@@H](O[C@H]3O[C@H](CO)[C@@H](O)[C@H](N)[C@H]3O)[C@H](N)C[C@@H]2N)[C@H](N)C[C@@H]1O.O=C(O)C(F)(F)F.O=C(O)C(F)(F)F.O=C(O)C(F)(F)F.O=C(O)C(F)(F)F.O=C(O)C(F)(F)F.O=C(O)C(F)(F)F.O=C(O)C(F)(F)F.O=C(O)C(F)(F)F.O=C(O)C(F)(F)F.O=C(O)C(F)(F)F
fold change (FC) [1]: 4 - 128
MIC [2]: 128 µg/mL
MIC [3]: 16 µg/mL
Activity [4]: -3.68 CFU/ml
fold change (FC) [5]: 4
MIC [6]: 2 µg/mL
fold change (FC) [7]: 4 - 128
MIC [8]: 16 µg/mL
MIC [9]: > 128 µg/mL
MIC [10]: 32 µg/mL
MIC [11]: > 128 µg/mL
Activity [12]: -5 CFU/ml
Ratio [13]: 16
Activity [14]: Non-Toxic
fold change (FC) [15]: 4 - 128
MIC [16]: 1 µg/mL
Ratio [17]: 128
fold change (FC) [18]: 4 - 128
MIC [19]: 0.125 µg/mL
fold change (FC) [20]: 4 - 128
Activity [21]: Dose-dependent effect
fold change (FC) [22]: 4 - 128
fractional inhibitory concentration index (FICI) [23]: >4
Ratio [24]: 16
fractional inhibitory concentration index (FICI) [25]: >4
MIC [26]: 8 µg/mL
MIC [27]: 8 µg/mL
Ratio [28]: 32
Activity [29]: inactive
MIC [30]: > 128 µg/mL
Activity [31]: Dose-dependent effect
fold change (FC) [32]: 4 - 128
Activity [33]: -2 CFU/ml
